Columns and labels:
[1] = molecular target: CDK6/Cyclin D1 (Homo sapiens (Human), UniProt Q00534); assay: biochemical; details: CDK6_Ki (nM), non-phosphorylated CDK6/Cyclin D1, 2 mM ATP, Morrison fit
[2] = molecular target: CDK2/Cyclin E1 (Homo sapiens (Human), UniProt P24941); assay: biochemical; details: CDK2_Ki (nM), phosphorylated CDK2/Cyclin E1, 150 μM ATP, Morrison tight-binding fit
Description: The assay was initiated with the addition of ATP, following a fifteen minutes pre-incubation of enzyme and inhibitor at room temperature in the reaction mixture. The reaction was stopped after 45 minutes at room temperature by the addition of 50 μL of 80 mM EDTA, pH 7.5.

Chain of CDK6/Cyclin D1 (Q00534 whole entry): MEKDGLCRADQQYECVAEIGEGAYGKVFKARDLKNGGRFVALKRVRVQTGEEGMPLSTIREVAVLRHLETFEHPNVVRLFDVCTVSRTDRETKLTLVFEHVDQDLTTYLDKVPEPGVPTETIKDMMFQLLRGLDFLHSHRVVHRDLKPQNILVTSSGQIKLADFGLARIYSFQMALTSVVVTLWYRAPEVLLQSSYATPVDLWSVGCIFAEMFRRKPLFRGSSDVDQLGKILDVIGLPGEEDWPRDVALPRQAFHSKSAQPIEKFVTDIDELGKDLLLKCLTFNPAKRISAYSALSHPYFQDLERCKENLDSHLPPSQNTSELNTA
Chain of CDK6/Cyclin D1 (P24385 whole entry partner): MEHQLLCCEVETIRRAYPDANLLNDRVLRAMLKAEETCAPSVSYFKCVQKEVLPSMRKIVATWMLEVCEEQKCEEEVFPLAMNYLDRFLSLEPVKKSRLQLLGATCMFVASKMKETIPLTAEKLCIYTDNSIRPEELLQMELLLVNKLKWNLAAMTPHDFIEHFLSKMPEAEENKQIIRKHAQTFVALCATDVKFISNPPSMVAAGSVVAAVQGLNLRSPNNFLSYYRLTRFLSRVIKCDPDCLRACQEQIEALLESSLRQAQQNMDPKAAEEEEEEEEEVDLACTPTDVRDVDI

Row | Structure (SMILES) | Ki [1] [nM] | Ki [2] [nM]
1 | CS(=O)(=O)CS(=O)(=O)N1CCC(Nc2ncc3ccc(=O)n(C4CCCC4)c3n2)CC1 [Example 18, 8-cyclopentyl-2-[(1-{[(methylsulfonyl)methyl]sulfonyl}piperidin-4-yl)amino]pyrido[2,3-d] pyrimidin-7(8H)-one] | 2.44 | 1.19
2 | CS(=O)(=O)N1CCC(Nc2ncc3cc(CC(F)F)c(=O)n([C@@H]4CCC[C@@H](O)C4)c3n2)CC1 [Example 140, 6-(2,2-difluoroethyl)-8-[(1R,3R)-3-hydroxycyclohexyl]-2-{[1-(methylsulfonyl)piperidin-4-yl]amino}pyrido[2,3-d]pyrimidin-7(8H)-one] | 0.63 | 1.97
3 | Cc1cc2cnc(NC3CCN(S(=O)(=O)C4CCS(=O)(=O)C4)CC3)nc2n([C@H]2CCC[C@]2(C)O)c1=O (single isomer, unassigned; isomer c) [Example 108, (+)-2-[(1-{[(3ξ)-1,1-dioxidotetrahydrothiophen-3-yl]sulfonyl}piperidin-4-yl)amino]-8-[(1R*,2R*)-2-hydroxy-2-methylcyclopentyl]-6-methylpyrido[2,3-d]pyrimidin-7(8H)-one-Isomer C] | 3.99 | 3.27
4 | COCCS(=O)(=O)N1CCC(Nc2ncc3ccc(=O)n(C4CCCC4)c3n2)CC1 [Example 15, 8-cyclopentyl-2-({1-[(2-methoxyethyl)sulfonyl]piperidin-4-yl}amino)pyrido[2,3-d]pyrimidin-7(8H)-one] | 0.76 | 0.46
5 | C[C@@]1(O)CCC[C@H]1n1c(=O)ccc2cnc(NC3CCN(S(N)(=O)=O)CC3)nc21 (single isomer, unassigned) [Example 183, (−)-4-({8-[(1R*,2R*)-2-hydroxy-2-methylcyclopentyl]-7-oxo-7,8-dihydropyrido[2,3-d]pyrimidin-2-yl}amino)piperidine-1-sulfonamide] | 1.99 | 0.1
6 | CC(C)(O)CS(=O)(=O)N1CCC(Nc2ncc3ccc(=O)n(C4CCCC4)c3n2)CC1 [Example 17, 8-cyclopentyl-2-({1-[(2-hydroxy-2-methylpropyl)sulfonyl]piperidin-4-yl}amino)pyrido[2,3-d]pyrimidin-7(8H)-one] | 2.33 | 1.79
7 | CS(=O)(=O)N1CC[C@H](Nc2ncc3cc(Cl)c(=O)n(C4CCCC4)c3n2)[C@@H](F)C1 (single isomer, unassigned) [Example 154, (−)-6-chloro-8-cyclopentyl-2-{[(3S*,4S*)-3-fluoro-1-(methylsulfonyl)piperidin-4-yl]amino}pyrido[2,3-d]pyrimidin-7(8H)-one] | 0.27 | –
8 | CS(=O)(=O)N1CC[C@@H](Nc2ncc3cc(Cl)c(=O)n(C4CCCC4)c3n2)[C@@H](F)C1 (single isomer, unassigned) [Example 153, (+)-6-chloro-8-cyclopentyl-2-{[(3R*,4S*)-3-fluoro-1-(methylsulfonyl)piperidin-4-yl]amino}pyrido[2,3-d]pyrimidin-7(8H)-one] | 2.23 | –
9 | CS(=O)(=O)N1CC[C@H](Nc2ncc3cc(Cl)c(=O)n(C4CCCC4)c3n2)[C@H](F)C1 (single isomer, unassigned) [Example 152, (−)-6-chloro-8-cyclopentyl-2-{[(3R*,4S*)-3-fluoro-1-(methylsulfonyl)piperidin-4-yl]amino}pyrido[2,3-d]pyrimidin-7(8H)-one] | 0.43 | –
10 | C=CCc1cc2cnc(NC3CCN(S(C)(=O)=O)CC3)nc2n(C2CCCC2)c1=O [Example 139, 8-cyclopentyl-2-{[1-(methylsulfonyl)piperidin-4-yl]amino}-6-(prop-2-en-1-yl)pyrido[2,3-d]pyrimidin-7(8H)-one] | – | 4.05
11 | C[C@@H]1[C@H](n2c(=O)ccc3cnc(NC4CCN(S(C)(=O)=O)CC4)nc32)CC[C@@H]1O (single isomer, unassigned) [Example 208, (−)-8-[(1R*,2R*,3S*)-3-hydroxy-2-methylcyclopentyl]-2-{[1-(methylsulfonyl)piperidin-4-yl]amino}pyrido[2,3-d]pyrimidin-7(8H)-one] | – | 12.4
12 | C[C@@]1(O)CCC[C@H]1n1c(=O)ccc2cnc(NC3CCN(S(=O)(=O)C4CCS(=O)(=O)C4)CC3)nc21 (single isomer, unassigned; isomer b) [Example 71] | – | 0.25
13 | Cc1cc2cnc(NC3CCN(S(=O)(=O)NC[C@@H]4CCCO4)CC3)nc2n([C@@H]2CCC[C@@]2(C)O)c1=O (single isomer, unassigned) [Example 100, (−)-4-({8-[(1R*,2R*)-2-hydroxy-2-methylcyclopentyl]-6-methyl-7-oxo-7,8-dihydropyrido[2,3-d]pyrimidin-2-yl}amino)-N-[(2S)-tetrahydrofuran-2-ylmethyl]piperidine-1-sulfonamide] | – | 0.27
14 | CS(=O)(=O)N1CC[C@@H](Nc2ncc3cc(Cl)c(=O)n(C4CCCC4)c3n2)[C@H](F)C1 (single isomer, unassigned) [Example 155, (+)-6-chloro-8-cyclopentyl-2-{[(3S*,4S*)-3-fluoro-1-(methylsulfonyl)piperidin-4-yl]amino}pyrido[2,3-d]pyrimidin-7(8H)-one] | 2.26 | –
15 | CS(=O)(=O)N1CC[C@@H](Nc2ncc3cc(CC(N)=O)c(=O)n(C4CCCC4)c3n2)[C@H](F)C1 (single isomer, unassigned) [Example 161, (+)-2-(8-cyclopentyl-2-{[(3S*,4S*)-3-fluoro-1-(methylsulfonyl)piperidin-4-yl]amino}-7-oxo-7,8-dihydropyrido[2,3-d]pyrimidin-6-yl)acetamide] | – | 135
16 | Cc1cc2cnc(NC3CCN(S(=O)(=O)C(F)F)CC3)nc2n(C2CCCC2)c1=O [Example 26, 8-cyclopentyl-2-({1-[(difluoromethyl)sulfonyl]piperidin-4-yl}amino)-6-methylpyrido[2,3-d]pyrimidin-7(8H)-one] | – | 3.84
17 | Cc1cc2cnc(NC3CCN(S(=O)(=O)N(C)C)CC3)nc2n(C2CCCC2)c1=O [Example 24, 4-[(8-cyclopentyl-6-methyl-7-oxo-7,8-dihydropyrido[2,3-d]pyrimidin-2-yl)amino]-N,N-dimethylpiperidine-1-sulfonamide] | – | 1.59
18 | O=c1ccc2cnc(NC3CCN(S(=O)(=O)C(F)F)CC3)nc2n1C1CCCC1 [Example 14, 8-cyclopentyl-2-({1-[(difluoromethyl)sulfonyl]piperidin-4-yl}amino)pyrido[2,3-d]pyrimidin-7(8H)-one] | – | 2.5
19 | Cc1cc2cnc(NC3CCN(S(=O)(=O)NC[C@@H]4CCCO4)CC3)nc2n([C@H]2CCC[C@]2(C)O)c1=O (single isomer, unassigned) [Example 101, (+)-4-({8-[(1R*,2R*)-2-hydroxy-2-methylcyclopentyl]-6-methyl-7-oxo-7,8-dihydropyrido[2,3-d]pyrimidin-2-yl}amino)-N-[(2S)-tetrahydrofuran-2-ylmethyl]piperidine-1-sulfonamide] | – | 3.59
20 | CNS(=O)(=O)N1CCC(Nc2ncc3cc(C)c(=O)n([C@@H]4CCC[C@H]4O)c3n2)CC1 [Example 55, 4-({8-[(1R,2R)-2-hydroxycyclopentyl]-6-methyl-7-oxo-7,8-dihydropyrido[2,3-d]pyrimidin-2-yl}amino)-N-methylpiperidine-1-sulfonamide] | – | 4.66
21 | CC(=O)c1c(C)c2cnc(NC3CCN(S(C)(=O)=O)CC3)nc2n([C@H]2CCC[C@]2(C)O)c1=O (single isomer, unassigned) [Example 178, (+)-6-acetyl-8-[(1R*,2R*)-2-hydroxy-2-methylcyclopentyl]-5-methyl-2-{[1-(methylsulfonyl)piperidin-4-yl]amino}pyrido[2,3-d]pyrimidin-7(8H)-one] | – | 9.04
22 | CC1(C)CC(Nc2ncc3cc(CCO)c(=O)n(C4CCCC4)c3n2)CCN1S(C)(=O)=O (single isomer, unassigned; (-)) [Example 163, (−)-8-cyclopentyl-2-{[2,2-dimethyl-1-(methylsulfonyl)piperidin-4-yl]amino}-6-(2-hydroxyethyl)pyrido[2,3-d]pyrimidin-7(8H)-one] | – | 63.2
23 | CS(=O)(=O)N1CC[C@@H](Nc2ncc3cc(N)c(=O)n(C4CCCC4)c3n2)[C@@H](F)C1 (single isomer, unassigned; isomer a) [Example 151, 6-amino-8-cyclopentyl-2-{[(3R*,4S*)-3-fluoro-1-(methylsulfonyl)piperidin-4-yl]amino}pyrido[2,3-d]pyrimidin-7(8H)-one-Isomer A] | 7.29 | –
24 | CN(C)S(=O)(=O)N1CCC(Nc2ncc3ccc(=O)n(C4CCCC4)c3n2)CC1 [Example 12, 4-[(8-cyclopentyl-7-oxo-7,8-dihydropyrido[2,3-d]pyrimidin-2-yl)amino]-N,N-dimethylpiperidine-1-sulfonamide] | – | 1.12
25 | C[C@]1(O)CCC[C@@H]1n1c(=O)ccc2cnc(NC3CCN(S(=O)(=O)NC[C@@H]4CCCO4)CC3)nc21 (single isomer, unassigned) [Example 63, (+)-4-({8-[(1R*,2R*)-2-hydroxy-2-methylcyclopentyl]-7-oxo-7,8-dihydropyrido[2,3-d]pyrimidin-2-yl}amino)-N-[(2S)-tetrahydrofuran-2-ylmethyl]piperidine-1-sulfonamide] | – | 4.51
26 | CN(C)S(=O)(=O)N1CCC(Nc2ncc3cc(CCO)c(=O)n(C4CCCC4)c3n2)CC1 [Example 27, 4-{[8-cyclopentyl-6-(2-hydroxyethyl)-7-oxo-7,8-dihydropyrido[2,3-d]pyrimidin-2-yl]amino}-N,N-dimethylpiperidine-1-sulfonamide] | – | 3.85
27 | C[C@@H]1CCC[C@@H]1n1c(=O)c(Cl)cc2cnc(NC3CCN(S(C)(=O)=O)CC3)nc21 [Example 39, 6-chloro-8-[(1S,2R)-2-methylcyclopentyl]-2-{[1-(methylsulfonyl)piperidin-4-yl]amino}pyrido[2,3-d]pyrimidin-7(8H)-one] | – | 1.28
28 | C[C@@]1(O)CCCC1n1c(=O)ccc2cnc(NC3CCN(S(=O)(=O)NC[C@H]4CCCO4)CC3)nc21 (single isomer, unassigned; (-)) [Example 64, (−)-4-({8-[(1R*,2R*)-2-hydroxy-2-methylcyclopentyl]-7-oxo-7,8-dihydropyrido[2,3-d]pyrimidin-2-yl}amino)-N-[(2R)-tetrahydrofuran-2-ylmethyl]piperidine-1-sulfonamide] | – | 0.35
